Source: patent US11174268B2, “Benzenesulfonamide compouds and their use as therapeutic agents” (Xenon Pharmaceuticals Inc., priority 2016, dated 2021)
Structures can show the parent of a compound that is named as a salt. Where two headings read alike, the source gives them in different places.

How the values were obtained:
NaV1.6 = NaV1.6 (Homo sapiens (Human), UniProt Q9UQD0); test: Sodium Influx Assay (Flux), NaV1.6; format: cell-based; conditions: Trex HEK293 cells, ANG2 dye, inactivated state;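 further: Tetracycline-induced cells, compounds applied for one hour at room temperature with modulators holding channels open, IC50 from percent inhibition of sodium influx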
NaV1.1 = NaV1.1 (Homo sapiens (Human), UniProt P35498); test: Sodium Influx Assay (Flux), NaV1.1; format: cell-based; conditions: Trex HEK293 cells, ANG2 dye, inactivated state;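 further: channels co-expressed with human β1 subunit and held open by modulators, cells exposed to compounds for one hour at room temperature, IC50 from percent inhibition of influx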
NaV1.5 = NaV1.5 (Homo sapiens (Human), UniProt Q14524); test: Sodium Influx Assay (Flux), NaV1.5
Sequence of NaV1.5 (Q14524 other isoform, or with tags, fused parts or gaps): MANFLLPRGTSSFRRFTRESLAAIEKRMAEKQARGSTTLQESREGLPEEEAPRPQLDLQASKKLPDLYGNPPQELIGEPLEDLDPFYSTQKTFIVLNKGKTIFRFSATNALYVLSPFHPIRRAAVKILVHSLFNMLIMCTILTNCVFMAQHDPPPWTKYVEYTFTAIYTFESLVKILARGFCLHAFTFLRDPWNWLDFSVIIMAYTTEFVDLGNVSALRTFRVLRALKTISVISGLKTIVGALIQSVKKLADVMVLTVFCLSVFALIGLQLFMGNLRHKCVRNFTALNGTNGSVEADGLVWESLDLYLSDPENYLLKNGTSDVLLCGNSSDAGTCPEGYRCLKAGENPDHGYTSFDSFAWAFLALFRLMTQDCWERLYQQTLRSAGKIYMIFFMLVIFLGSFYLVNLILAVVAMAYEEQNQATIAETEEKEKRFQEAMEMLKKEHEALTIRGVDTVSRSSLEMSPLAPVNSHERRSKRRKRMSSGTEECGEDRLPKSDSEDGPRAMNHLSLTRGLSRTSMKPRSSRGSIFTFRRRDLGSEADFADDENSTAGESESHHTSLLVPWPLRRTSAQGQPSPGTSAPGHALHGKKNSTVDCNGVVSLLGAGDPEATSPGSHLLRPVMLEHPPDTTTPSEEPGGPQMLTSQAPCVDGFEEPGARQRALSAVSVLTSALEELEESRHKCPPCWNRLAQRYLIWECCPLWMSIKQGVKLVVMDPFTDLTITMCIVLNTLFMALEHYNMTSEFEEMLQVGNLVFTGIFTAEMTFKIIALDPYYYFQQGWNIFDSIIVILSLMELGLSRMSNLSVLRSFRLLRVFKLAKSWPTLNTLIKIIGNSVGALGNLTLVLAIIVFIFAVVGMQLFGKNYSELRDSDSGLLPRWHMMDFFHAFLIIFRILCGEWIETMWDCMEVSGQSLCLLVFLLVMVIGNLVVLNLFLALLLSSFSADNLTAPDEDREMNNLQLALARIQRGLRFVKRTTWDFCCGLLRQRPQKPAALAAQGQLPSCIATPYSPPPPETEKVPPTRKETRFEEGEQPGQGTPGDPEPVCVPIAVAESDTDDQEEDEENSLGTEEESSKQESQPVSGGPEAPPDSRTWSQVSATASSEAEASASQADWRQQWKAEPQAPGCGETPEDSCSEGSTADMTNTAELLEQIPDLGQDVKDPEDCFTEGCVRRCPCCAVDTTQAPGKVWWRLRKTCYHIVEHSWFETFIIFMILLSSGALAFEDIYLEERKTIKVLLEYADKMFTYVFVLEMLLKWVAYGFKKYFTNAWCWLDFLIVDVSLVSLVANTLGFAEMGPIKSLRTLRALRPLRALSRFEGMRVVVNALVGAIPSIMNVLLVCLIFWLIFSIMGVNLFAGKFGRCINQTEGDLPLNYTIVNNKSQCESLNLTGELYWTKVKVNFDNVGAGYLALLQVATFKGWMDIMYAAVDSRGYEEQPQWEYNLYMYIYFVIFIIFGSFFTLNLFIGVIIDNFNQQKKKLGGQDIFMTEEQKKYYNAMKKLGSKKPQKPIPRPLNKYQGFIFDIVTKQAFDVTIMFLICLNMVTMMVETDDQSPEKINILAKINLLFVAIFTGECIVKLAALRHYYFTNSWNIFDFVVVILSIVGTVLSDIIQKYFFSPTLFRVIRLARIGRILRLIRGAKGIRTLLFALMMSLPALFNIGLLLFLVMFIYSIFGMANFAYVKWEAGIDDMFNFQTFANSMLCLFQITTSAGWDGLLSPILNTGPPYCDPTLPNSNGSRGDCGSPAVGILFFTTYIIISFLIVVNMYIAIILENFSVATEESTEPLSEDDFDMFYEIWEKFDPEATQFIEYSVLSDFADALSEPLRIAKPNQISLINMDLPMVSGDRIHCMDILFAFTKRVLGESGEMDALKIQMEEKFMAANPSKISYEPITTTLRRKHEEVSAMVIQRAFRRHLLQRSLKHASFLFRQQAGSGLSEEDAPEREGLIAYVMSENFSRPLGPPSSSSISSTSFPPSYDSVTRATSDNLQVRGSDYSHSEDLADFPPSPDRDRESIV

[1] = read-out: Flux NaV1.5 IC50, Trex HEK293 cells, ANG2 dye, inactivated state

Structure (SMILES)	IC50 (NaV1.6)	IC50 (NaV1.1)	IC50 (NaV1.5; [1])	IC50 (NaV1.5)
O=S(=O)(Nc1nccs1)c1cc(Cl)c(NC2CCCc3ncccc32)cc1F (stereo not drawn) [Example 98, 5-chloro-2-fluoro-4-((5,6,7,8-tetrahydroquinolin-5-yl)amino)-N-(thiazol-2-yl)benzenesulfonamide formate]	299 nM	303 nM	11000 nM	–
O=S(=O)(Nc1nccs1)c1ccc(NC(c2ccccc2)C2CC2)c(Cl)c1 (stereo not drawn) [Example 99, 3-chloro-4-((cyclopropyl(phenyl)methyl)amino)-N-(thiazol-2-yl)benzenesulfonamide]	373 nM	1940 nM	9270 nM	–
O=S(=O)(Nc1nccs1)c1cc(Cl)c(NC(c2ccccc2)C2CC2)cc1F (stereo not drawn) [Example 100, 5-chloro-4-((cyclopropyl(phenyl)methyl)amino)-2-fluoro-N-(thiazol-2-yl)benzenesulfonamide]	216 nM	667 nM	6420 nM	–
O=S(=O)(Nc1nccs1)c1cc(Cl)c(N[C@@H]2CCCc3ccccc32)cc1F [Example 102, (R)-5-chloro-2-fluoro-4-((1,2,3,4-tetrahydronaphthalen-1-yl)amino)-N-(thiazol-2-yl)benzenesulfonamide]	1670 nM	941 nM	5970 nM	–
O=S(=O)(Nc1nccs1)c1cc(Cl)c(NC2(c3cccc(F)c3)CCC2)cc1F [Example 106, 5-chloro-2-fluoro-4-((1-(3-fluorophenyl)cyclobutyl)amino)-N-(thiazol-2-yl)benzenesulfonamide]	533 nM	3700 nM	10100 nM	–
C[C@H](Oc1cc(F)c(S(=O)(=O)Nc2nccs2)cc1Cl)c1ccc(Cl)c(Cl)c1 [Example 108, (S)-5-chloro-4-(1-(3,4-dichlorophenyl)ethoxy)-2-fluoro-N-(thiazol-2-yl)benzenesulfonamide]	14500 nM	21100 nM	22400 nM	–
CC(C)C[C@H](Nc1cc(F)c(S(=O)(=O)Nc2nccs2)cc1Cl)c1ccccc1 [Example 109, (S)-5-chloro-2-fluoro-4-((3-methyl-1-phenylbutyl)amino)-N-(thiazol-2-yl)benzenesulfonamide]	214 nM	1110 nM	7860 nM	–
CC(C)C[C@@H](Nc1cc(F)c(S(=O)(=O)Nc2nccs2)cc1Cl)c1ccccc1 [Example 110, (R)-5-chloro-2-fluoro-4-((3-methyl-1-phenylbutyl)amino)-N-(thiazol-2-yl)benzenesulfonamide]	1030 nM	3840 nM	3150 nM	–
CCC[C@H](Nc1cc(F)c(S(=O)(=O)Nc2nccs2)cc1Cl)c1ccccc1 [Example 111, (S)-5-chloro-2-fluoro-4-((1-phenylbutyl)amino)-N-(thiazol-2-yl)benzenesulfonamide]	352 nM	1380 nM	8330 nM	–
C[C@H](Oc1cc(F)c(S(=O)(=O)Nc2cscn2)cc1Cl)c1cccc(F)c1 [Example 118, (S)-5-chloro-2-fluoro-4-(1-(3-fluorophenyl)ethoxy)-N-(thiazol-4-yl)benzenesulfonamide]	3180 nM	15900 nM	7500 nM	–
C[C@@H](Oc1cc(F)c(S(=O)(=O)Nc2nccs2)cc1Cl)c1ccccc1F [Example 121, (R)-5-chloro-2-fluoro-4-(1-(2-fluorophenyl)ethoxy)-N-(thiazol-2-yl)benzenesulfonamide]	2320 nM	3380 nM	2150 nM	–
C[C@H](Oc1cc(F)c(S(=O)(=O)Nc2cscn2)cc1Cl)c1cc(Cl)ccc1F [Example 124, (S)-5-chloro-4-(1-(5-chloro-2-fluorophenyl)ethoxy)-2-fluoro-N-(thiazol-4-yl)benzenesulfonamide]	1840 nM	15900 nM	1870 nM	–
C[C@H](Sc1cc(F)c(S(=O)(=O)Nc2nccs2)cc1Cl)c1ccccc1 [Example 125, (S)-5-chloro-2-fluoro-4-((1-phenylethyl)thio)-N-(thiazol-2-yl)benzenesulfonamide]	1730 nM	3260 nM	3350 nM	–
CC[C@H](Nc1cc(F)c(S(=O)(=O)Nc2nccs2)cc1C)c1ccccc1 [Example 126, (S)-2-fluoro-5-methyl-4-((1-phenylpropyl)amino)-N-(thiazol-2-yl)benzenesulfonamide]	114 nM	147 nM	–	11400 nM
